This is an account of results in patent publication US10689383B2, “Optionally fused heterocyclyl-substituted derivatives of pyrimidine useful for the treatment of inflammatory, metabolic, oncologic and autoimmune diseases” (NUEVOLUTION A/S, priority 2014, dated 2020).

The assay deals with T1, human RORγt (Ligand Binding Domain) (Homo sapiens, UniProt P51449).
T1 construct: purchased Crelux (Planegg, Germany) batch no PC5032-1
T1 sequence (P51449 269-508 limits assumed): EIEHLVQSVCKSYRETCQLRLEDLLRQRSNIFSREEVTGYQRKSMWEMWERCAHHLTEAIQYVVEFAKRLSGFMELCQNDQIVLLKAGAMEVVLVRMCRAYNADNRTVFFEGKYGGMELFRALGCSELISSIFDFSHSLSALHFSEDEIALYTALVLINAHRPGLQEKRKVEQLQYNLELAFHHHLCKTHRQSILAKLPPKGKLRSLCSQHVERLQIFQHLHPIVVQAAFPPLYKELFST
Kind of assay: Fluorescence Polarization (FP) Assay. As to conditions: Fluorescence Polarization (FP) Assay; values given as upper bounds of activity ranges; read-out: FP activity range. An outline of the steps: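 Binding to the ligand pocket followed by fluorescence polarization with a TAMRA-tagged RORγt ligand probe of 910 g/mole. Negative control wells received DMSO only.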
Regarding `Fc1c(NCc2ccc(OCC3CCCO3)cc2)ncnc1N1CCCC1c1ccc(C(F)(F)F)cc1` (centres unmarked) [Example 59, 5-fluoro-N-[[4-(tetrahydrofuran-2-ylmethoxy)phenyl]methyl]-6-[2-[4-(trifluoromethyl)phenyl]pyrrolidin-1-yl]pyrimidin-4-amine], the IC50 was less than 10 µM.
With `CC(=O)N1CCOC([C@@H](CC(C)(C)C)Nc2ncnc(N3CCCC3c3ccc(C(F)(F)F)cc3)c2F)C1` (stereo partly drawn) [Example 71, 1-[2-[(1R)-1-[[5-fluoro-6-[2-[4-(trifluoromethyl)phenyl]pyrrolidin-1-yl]pyrimidin-4-yl]amino]-3,3-dimethyl-butyl]morpholin-4-yl]ethanone] the figure was less than 10 µM; with `CC1CC(c2ccc(C(F)(F)F)cc2)N(c2ncnc(N[C@H](Cc3ccc(F)cc3)C(N)=O)c2F)C1` (stereo partly drawn) [Example 37, (2R)-2-[[5-fluoro-6-[4-methyl-2-[4-(trifluoromethyl)phenyl]pyrrolidin-1-yl]pyrimidin-4-yl]amino]-3-(4-fluorophenyl)propanamide], less than 1 µM.
With `O=S1(=O)CCCC1CNc1ncnc(N2CCC[C@@H]2c2ccc(C(F)(F)F)cc2)c1F` (stereo partly drawn) [Example 170, N-[(1,1-dioxothiolan-2-yl)methyl]-5-fluoro-6-[(2R)-2-[4-(trifluoromethyl)phenyl]pyrrolidin-1-yl]pyrimidin-4-amine] the figure was less than 10 µM; with `O=C1CCCN1c1cccc(CNc2ncnc(N3CCCC3c3ccc(C(F)(F)F)cc3)c2F)c1` (centres unmarked) [Example 143, 1-[3-[[[5-fluoro-6-[2-[4-(trifluoromethyl)phenyl]pyrrolidin-1-yl]pyrimidin-4-yl]amino]methyl]phenyl]pyrrolidin-2-one], less than 2 µM; with `CCC(Nc1ncnc(N2CCCC2c2ccc(C(F)(F)F)cc2)c1F)c1noc(C)n1` (centres unmarked) [Example 215, 5-fluoro-N-[1-(5-methyl-1,2,4-oxadiazo1-3-yl)propyl]-6-[2-[4-(trifluoromethyl)phenyl]pyrrolidin-1-yl]pyrimidin-4-amine], less than 10 µM.
With `CC(CC1CCOCC1)Nc1ncnc(N2CCCC2c2ccc(C(F)(F)F)cc2)c1F` (centres unmarked) [Example 41, 5-fluoro-N-(1-methyl-2-tetrahydropyran-4-yl-ethyl)-6-[2-[4-(trifluoromethyl)phenyl]pyrrolidin-1-yl]pyrimidin-4-amine], the IC50 was less than 2 µM.
As for `Cc1ccc(CNc2ncnc(N3CCCC3c3ccc(C)o3)c2F)cn1` (centres unmarked) [Example 150, 5-fluoro-6-[2-(5-methyl-2-furyl)pyrrolidin-1-yl]-N-[(6-methyl-3-pyridyl)methyl]pyrimidin-4-amine], the IC50 is less than 10 µM.
In the case of `NC(=O)Cc1ccc(CNc2ncnc(N3CCCC3c3nc4ccccc4s3)c2F)cc1` (centres unmarked) [Example 310, 2-[4-[[[6-[2-(1,3-benzothiazol-2-yl)pyrrolidin-1-yl]-5-fluoro-pyrimidin-4-yl]amino]methyl]phenyl]acetamide], the IC50 was less than 0.5 µM.
Consider `NCCNC(=O)C1(CNc2ncnc(N3CCOC[C@@H]3c3ccc(C(F)(F)F)cc3)c2F)CCOCC1` [Example 256, N-(2-aminoethyl)-4-[[[5-fluoro-6-[(3S)-3-[4-(trifluoromethyl)phenyl]morpholin-4-yl]pyrimidin-4-yl]amino]methyl]tetrahydropyran-4-carboxamide], for which the IC50 is less than 10 µM.
With `NC(=O)Cc1ccc(CNc2ncnc(N3CCCC3c3cccc4ccccc34)c2F)cc1` (centres unmarked) [Example 311, 2-[4-[[[5-fluoro-6-[2-(1-naphthyl)pyrrolidin-1-yl]pyrimidin-4-yl]amino]methyl]phenyl] acetamide] the figure was less than 0.5 µM; with `CNC(=O)Cc1ccc(CNc2ncnc(N3CCOC[C@@H]3c3ccc(C(F)(F)F)cc3)c2F)cc1` [Example 244, 2-[4-[[[5-fluoro-6-[(3S)-3-[4-(trifluoromethyl)phenyl]morpholin-4-yl]pyrimidin-4-yl]amino]methyl]phenyl]-N-methyl-acetamide], less than 2 µM; with `O=C(O)C[C@H]1CC[C@H](CNc2ncnc(N3CCOC[C@@H]3c3ccc(OC(F)(F)F)cc3)c2F)CC1` [Example 243, 2-[4-[[[5-fluoro-6-[(3S)-3-[4-(trifluoromethoxy)phenyl]morpholin-4-yl]pyrimidin-4-yl]amino]methyl]cyclohexyl]acetic acid], less than 0.5 µM.
`O=C1CC(CNc2ncnc(N3CCCC3c3ccc(C(F)(F)F)cc3)c2F)CN1C1CCCC1` (centres unmarked) [Example 130, 1-cyclopentyl-4-[[[5-fluoro-6-[2-[4-(trifluoromethyl)phenyl]pyrrolidin-1-yl]pyrimidin-4-yl]amino]methyl]pyrrolidin-2-one]: the IC50 is less than 10 µM.
`Fc1c(NCC2CCCCO2)ncnc1N1CCC[C@@H]1c1ccc(C(F)(F)F)cc1` (stereo partly drawn) [Example 155, 5-fluoro-N-(tetrahydropyran-2-ylmethyl)-6-[(2R)-2-[4-(trifluoromethyl)phenyl]pyrrolidin-1-yl]pyrimidin-4-amine]: the IC50 was less than 10 µM.
With `COC1CC(c2ccc(C(F)(F)F)cc2)N(c2ncnc(NCc3ccc(C)nc3)c2F)C1` (centres unmarked) [Example 212, 5-fluoro-6-[4-methoxy-2-[4-(trifluoromethyl)phenyl]pyrrolidin-1-yl]-N-[(6-methyl-3-pyridyl)methyl]pyrimidin-4-amine] the figure was less than 10 µM.
In the case of `Fc1c(NCC2CCCO2)ncnc1N1CCC[C@@H]1c1ccc(C(F)(F)F)cc1` (stereo partly drawn) [Example 181, 5-fluoro-N-(tetrahydrofuran-2-ylmethyl)-6-[(2R)-2-[4-(trifluoromethyl)phenyl]pyrrolidin-1-yl]pyrimidin-4-amine], the IC50 was less than 10 µM.
With `Fc1c(NCC2CCCS2)ncnc1N1CCC[C@@H]1c1ccc(C(F)(F)F)cc1` (stereo partly drawn) [Example 159, 5-fluoro-N-(tetrahydrothiophen-2-ylmethyl)-6-[(2R)-2-[4-(trifluoromethyl)phenyl]pyrrolidin-1-yl]pyrimidin-4-amine] the figure was less than 2 µM; with `Fc1c(NCc2ccc(-c3nnn[nH]3)cc2)ncnc1N1CCCC1c1ccc(C(F)(F)F)cc1` (centres unmarked) [Example 138, 5-fluoro-N-[[4-(1H-tetrazol-5-yl)phenyl]methyl]-6-[2-[4-(trifluoromethyl)phenyl]pyrrolidin-1-yl]pyrimidin-4-amine], less than 0.5 µM.
With `Fc1c(NCc2ccccc2)ncnc1N1CCCC1c1ccc(C(F)(F)F)cc1` (centres unmarked) [Example 139, N-benzyl-5-fluoro-6-[2-[4-(trifluoromethyl)phenyl]pyrrolidin-1-yl]pyrimidin-4-amine] the figure was less than 2 µM.
